The values that follow come from patent US11154593B2, “CNP prodrugs with large carrier moieties” (ASCENDIS PHARMA GROWTH DISORDERS A/S, priority 2016, dated 2021).

One series addresses recombinant human NEP (Homo sapiens, UniProt P08473). The series can be described thus: Digest of CNP variants by Neutral Endopeptidase in vitro (NEP digest assay). The following applies: pH 7.4.
The target of another series is T1, NPR-B (Mus musculus, UniProt Q6VVW5).
T1 construct: These cells express endogenously NPR-B on the cell surface; endogenous in cells; host or cells: NIH-3T3 (murine embryo fibroblasts)
T1 sequence (Q6VVW5 17-1047): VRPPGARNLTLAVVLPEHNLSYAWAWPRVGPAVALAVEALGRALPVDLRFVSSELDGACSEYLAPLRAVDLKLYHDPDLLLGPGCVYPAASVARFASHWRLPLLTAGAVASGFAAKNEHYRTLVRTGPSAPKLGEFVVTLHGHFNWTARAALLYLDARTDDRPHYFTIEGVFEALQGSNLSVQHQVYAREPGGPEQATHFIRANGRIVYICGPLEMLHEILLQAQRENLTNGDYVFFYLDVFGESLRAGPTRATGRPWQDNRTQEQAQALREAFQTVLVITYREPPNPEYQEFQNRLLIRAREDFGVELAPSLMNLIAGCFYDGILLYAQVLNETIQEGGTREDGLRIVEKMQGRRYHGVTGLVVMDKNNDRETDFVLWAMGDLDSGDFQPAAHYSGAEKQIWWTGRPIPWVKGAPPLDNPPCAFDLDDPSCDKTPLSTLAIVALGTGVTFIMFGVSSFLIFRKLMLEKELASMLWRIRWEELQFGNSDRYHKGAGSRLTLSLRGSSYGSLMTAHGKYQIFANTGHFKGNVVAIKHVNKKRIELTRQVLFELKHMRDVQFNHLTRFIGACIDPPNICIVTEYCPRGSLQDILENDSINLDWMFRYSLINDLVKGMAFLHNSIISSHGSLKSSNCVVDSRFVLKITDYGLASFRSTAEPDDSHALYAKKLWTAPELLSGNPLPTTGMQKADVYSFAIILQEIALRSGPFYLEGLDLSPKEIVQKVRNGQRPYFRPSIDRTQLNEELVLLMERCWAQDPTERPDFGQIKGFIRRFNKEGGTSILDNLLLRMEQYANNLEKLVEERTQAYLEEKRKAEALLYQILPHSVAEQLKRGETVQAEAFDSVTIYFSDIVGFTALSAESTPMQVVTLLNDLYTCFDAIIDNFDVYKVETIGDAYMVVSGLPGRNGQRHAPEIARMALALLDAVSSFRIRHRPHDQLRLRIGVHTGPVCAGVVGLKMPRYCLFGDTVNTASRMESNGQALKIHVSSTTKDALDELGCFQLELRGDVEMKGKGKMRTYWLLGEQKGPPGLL
In words: Functional cGMP stimulation in NIH-3T3 cells with CNP variants. Particulars: cGMP TR-FRET, 30 min, 37° C. The series is classed as cell-based, Murine. The procedure:
Functional activity of CNP variants were determined in a cell-based assay with NIH-3T3 cells (Murine Embryo Fibroblast cell line). These cells express endogenously NPR-B on the cell surface. Stimulation of NPR-B with CNP leads to intracellular production of the second messenger cGMP which is detected with a commercially available cGMP assay. NIH-3T3 cells were routinely cultured in DMEM F-12 medium with 5% FBS and 5 mM glutamine at 37° C. and 5% CO2. For each assay, 50,000 cells were resuspended in stimulation buffer (Dulbecco's PBS with IBMX) and incubated with the CNP variants in different concentrations. CNP (dilutions were made in PBS with 0.2% BSA). After incubation of 30 min at 37° C. and 5% CO2, the cells were lyzed and cGMP levels were determined with a commercially available cGMP TR-FRET assay (Cisbio, cGMP kit, Cat. No. 62GM2PEB). PEGylated CNP variants were always characterized in comparison with the non-PEGylated version in the same experiment batch. If possible, evaluation of the residual activity was done via the EC50- parameter of the resulting dose-response curve (restricted model with common slope).
After 7 d, released CNP-38 was isolated by RP-HPLC and analyzed for bioactivity as described in Example 22.
For orientation: TR-FRET usually uses a lanthanide donor and a delayed reading to cut background.

In a further series the target is T2, NPR-C (Homo sapiens, UniProt P17342).
T2 sequence (P17342 27-541): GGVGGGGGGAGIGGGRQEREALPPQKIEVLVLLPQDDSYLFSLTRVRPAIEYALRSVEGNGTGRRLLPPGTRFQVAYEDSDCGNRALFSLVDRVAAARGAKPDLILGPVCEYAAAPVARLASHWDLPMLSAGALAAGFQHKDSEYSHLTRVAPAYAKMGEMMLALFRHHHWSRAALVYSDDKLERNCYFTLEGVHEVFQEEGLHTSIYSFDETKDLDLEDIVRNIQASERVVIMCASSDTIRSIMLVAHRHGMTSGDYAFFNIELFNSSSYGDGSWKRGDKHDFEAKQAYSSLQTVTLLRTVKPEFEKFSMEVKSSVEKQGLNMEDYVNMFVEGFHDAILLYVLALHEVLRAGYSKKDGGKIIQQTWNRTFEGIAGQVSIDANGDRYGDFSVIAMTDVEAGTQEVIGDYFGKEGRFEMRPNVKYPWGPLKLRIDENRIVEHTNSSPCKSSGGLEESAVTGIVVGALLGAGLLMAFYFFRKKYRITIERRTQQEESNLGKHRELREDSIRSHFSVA
The series can be described thus: NPR-C affinity assay (competition with fluorescein-labelled CNP 27d, flow cytometry). Particulars: NPR-C expressing Hek293 cell line.

For series [1] the following is noted: in vivo; cited from earlier work.
For series [2] the following is noted: doses up to 15 μg/kg, healthy volunteers; cited from earlier work.
The nature of series [3]: Evaluation of cardiovascular effects in the conscious telemetered mouse (subcutaneous administration). The class given is in vivo. Particulars: for MAP during the remaining ten time points versus vehicle / change in MAP at the 5, 15 and 30 min post dose time points compared to predose / MAP (mean ± SD): 800 μg CNP-38 (eq)/kg sc; for MAP during the remaining ten time points versus vehicle: 1 to 48 hours postdose; for change in MAP at the 5, 15 and 30 min post dose time points compared to predose: CNP-38: 3 of 4 animals. The protocol:
Male Crl:CDl(ICR) mice (age range 8-13 weeks and body weight range 27.3-35.6 g at start of dosing) were surgically implanted with a TA11PA-C10 telemetry transmitter (Data Sciences International (DSI)) in the carotid artery. The body of the transmitter was placed subcutaneously in the lateral flank of the mouse. The mice were dosed subcutaneously in a latin square crossover design with at least 72 hours between dosing occasions. […] At least four mice were included at each dose level. Blood pressure (systolic (SAP), diastolic (DAP) and mean (MAP) and heart rate (HR, derived from blood pressure), were recorded using a digital data capture system linked with a DSI™ Ponemah data acquisition and analysis system. The capture system allowed recording of the cardiovascular parameters whilst the mice were in individual cages. On the day of each test session the animals were weighed and a predose recording was performed for at least 60 min prior to dosing. Each mouse was returned to the home cage and the cardiovascular parameters were recorded for approximately 48 hours postdose. Blood pressure and HR were reported at the following time points: -30, -20, -10, 5, 15 and 30 min postdose and 1, 2, 6, 12, 18, 24, 30, 36, 42 and 48 hours postdose. Each time point was presented as the average value of five minute's recording prior to the time point. The monitoring period was selected to cover exposure to the test items both prior to and after Tmax.

In series [4] the target is Neutral Endopeptidase (NEP) (Homo sapiens, UniProt P08473). The series can be described thus: in vitro. Particulars: pH 7.4.
Procedure: (§1) In order to determine the in vitro stability of various CNP variants including different peptide chain lengths and PEGylations using different PEGylation sites and PEG molecules in the presence of Neutral Endopeptidase (NEP), a NEP digest assay was established. This assay monitored the decrease of the non-digested CNP variant (normalized with the internal standard PFP) over time in reference to the t0-time point.
(§2) In detail, recombinant human NEP (2.5 μg/mL final concentration) and the standard pentafluorophenol (PFP; 40 μg/mL final concentration) were added to the CNP variant (100 μg CNP equivalents/mL) in digest buffer (50 mM Tris-HCl, pH 7.4, 10 mM NaCl). The solution was incubated at 37° C. and 500 rpm for up to 4 days. Samples were taken at different time intervals. The reaction was stopped by a combined reduction and heat denaturation adding TCEP (tris(2-carboxyethyl)phosphine; 25 mM final concentration) and incubating the mixture at 95° C., 500 rpm for 5 minutes. The resulting reaction products were assigned using HPLC-MS. The half life of each CNP variant was calculated via the ratio change in the HPLC-UV peak areas of CNP and PFP over time.
Series [5] in a line: Pharmacokinetic profile of CNP-38 after subcutaneous single-dose administration to cynomolgus monkeys. The class given is in vivo.
Procedure: Blood samples were collected at 5, 10, 15, 30, 45 min and 1, 2, 4, 8 hours upon dose.
Method: Plasma levels of CNP were analysed using a commercially available competitive radioimmuno-assay (RK-012-03, Phoenix Pharmaceuticals, CA). The assay was applied essentially as described by the manufacturer. The assay is based on competitive binding between 1251-labelled CNP (supplied in the kit) and unlabeled CNP (from study sample or calibrants) to an anti-CNP antibody. […] By measuring the amount of 1251-labelled CNP bound as a function of the concentration of peptide, it is possible to construct a calibration curve from which the concentration of peptide in the sample can be determined.
A few changes to the supplied assay protocol were made. These changes included using in-house CNP calibrant and QC samples to secure consistency between assay runs. […] Due to matrix effects in monkey plasma, the minimal required dilution was set at 1:10, yielding an assay range of 150-1080 μg/mL CNP.
Where [6] appears, read: male, cynomolgus monkey, in vivo, sc, 40 ug/kg.

Like-named read-outs stand apart in the source and are kept apart here.

Chain of recombinant human NEP (P08473 whole entry): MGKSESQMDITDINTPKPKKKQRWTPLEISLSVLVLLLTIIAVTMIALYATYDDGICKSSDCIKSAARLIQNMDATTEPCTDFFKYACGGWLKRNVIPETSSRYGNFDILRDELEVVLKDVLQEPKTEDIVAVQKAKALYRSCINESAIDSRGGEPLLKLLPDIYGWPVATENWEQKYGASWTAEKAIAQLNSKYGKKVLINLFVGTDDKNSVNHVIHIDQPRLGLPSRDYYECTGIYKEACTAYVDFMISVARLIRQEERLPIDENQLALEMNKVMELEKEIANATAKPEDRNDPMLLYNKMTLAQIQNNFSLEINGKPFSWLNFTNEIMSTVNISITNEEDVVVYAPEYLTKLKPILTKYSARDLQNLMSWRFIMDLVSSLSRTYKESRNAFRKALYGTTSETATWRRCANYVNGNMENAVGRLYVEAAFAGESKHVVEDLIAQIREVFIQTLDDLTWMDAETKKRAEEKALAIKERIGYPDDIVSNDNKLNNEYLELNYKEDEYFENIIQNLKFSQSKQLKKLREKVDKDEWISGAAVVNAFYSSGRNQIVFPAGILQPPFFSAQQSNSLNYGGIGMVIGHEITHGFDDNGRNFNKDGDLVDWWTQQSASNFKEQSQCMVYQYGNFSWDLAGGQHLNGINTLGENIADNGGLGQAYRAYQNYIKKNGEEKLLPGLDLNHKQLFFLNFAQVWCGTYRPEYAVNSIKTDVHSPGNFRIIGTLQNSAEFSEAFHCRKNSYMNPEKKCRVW
Chain of Neutral Endopeptidase (NEP) (P08473 whole entry): as above
Procedure for recombinant human NEP: as §1, §2

As to “Permanent Lys22 CNP-34 PEG 5 kDa Conjugate [Conjugate 18e]”, the “half life norm.” value with recombinant human NEP turned out to be 38.87 h.

Take “Permanent Lys26 CNP-38 PEG 5 kDa Conjugate [Conjugate 19e]”: the “EC50 compound/EC50 CNP-38 (residual NPR-B activity)” value at NPR-B is over 100. Besides, the “half life norm.” value in the series with recombinant human NEP is on record as 62.76 h. The “IC50 of PEGylated CNP-38/IC50 CNP-38 (residual NPR-C affinity)” value on NPR-C turned out to be 1.1.

In the case of “Permanent Lys26 CNP-38 PEG4×10 kDa Conjugate [Conjugate 12g]”, in the series with recombinant human NEP, the “half life norm. [h]” value was “Almost no proteolysis”.

Turning to “Permanent N-Terminal CNP-34 PEG 5 kDa Conjugate [Conjugate 14e]”, the “half life norm. [h]” value in the series with recombinant human NEP was “Almost no proteolysis”.

Regarding BMN-111, the half-life (usually the time in which the quantity being followed falls by half) in series [1] is 0.333 h. Moreover, in series [2], the blood pressure effect entry was “mild hypotension”.

In the case of “Permanent Lys16 CNP-34 PEG 5 kDa Conjugate [Conjugate 17e]”, the “half life norm.” value with recombinant human NEP came out at 54.23 h.

On to `CC[C@H](C)[C@@H]1NC(=O)[C@H](CCCNC(=N)N)NC(=O)[C@H](CC(=O)O)NC(=O)[C@H](CC(C)C)NC(=O)[C@H](CCCCN)NC(=O)[C@H](CC(C)C)NC(=O)CNC(=O)[C@H](Cc2ccccc2)NC(=O)[C@@H](NC(=O)CNC(=O)[C@H](CCCCN)NC(=O)[C@H](CO)NC(=O)[C@H](CC(C)C)NC(=O)CNC(=O)[C@H](CCCCN)NC(=O)[C@H](CCCCN)NC(=O)[C@H](CC(N)=O)NC(=O)[C@H](C)NC(=O)CNC(=O)[C@H](CCCCN)NC(=O)[C@H](Cc2ccc(O)cc2)NC(=O)[C@H](CCCCN)NC(=O)[C@H](CCCNC(=N)N)NC(=O)[C@H](C)NC(=O)[C@H](CC(N)=O)NC(=O)[C@@H]2CCCN2C(=O)[C@H](Cc2c[nH]cn2)NC(=O)[C@H](CCC(=O)O)NC(=O)[C@H](CCC(N)=O)NC(=O)[C@@H](N)CC(C)C)CSSC[C@@H](C(=O)O)NC(=O)CNC(=O)[C@H](CC(C)C)NC(=O)CNC(=O)[C@H](CO)NC(=O)[C@H](CCSC)NC(=O)[C@H](CO)NC(=O)CNC1=O` [CNP-38, reference compound], for which, in series [3], the “MAP during the remaining ten time points versus vehicle” value is given as “no difference in MAP”; the “change in MAP at the 5, 15 and 30 min post dose time points compared to predose” value is on record as “significant decrease in MAP”. Further, in series [3] (5 min post dose), the “MAP (mean ± SD)” value amounted to 102.0 ± 7.5 mmHg. Further, in series [3] (15 min post dose), the “MAP (mean ± SD)” value amounted to 89.5 ± 29.4 mmHg. The “MAP (mean ± SD)” value in series [3] (30 min post dose) came out at 99.5 ± 25.2 mmHg. Further, in series [3] (predose), the “MAP (mean ± SD)” value is on record as 106.8 ± 13.4 mmHg. Further, the half-life at 100 μg CNP equivalents/mL in series [4] was 12.1 h. Besides, in series [5] (setting [6]), the AUC(0-t) – broadly, the area under the concentration-time curve up to a stated or last time point – amounted to 2.5 ng·h/mL; the Cmax – broadly, the peak of the concentration-time curve – came out at 7.9 ng/mL; the Tmax (as a rule, the time from dosing to the highest level) is 0.167 h. Further, the half-life in series [5] (male, cynomolgus monkey, in vivo, sc, 40 ug/kg, Half-life (mean)) was about 7 min. Moreover, the tolerability result in series [5] (single s.c. 40 μg/kg) was “well tolerated”.

As to “Reversible Lys26 CNP-38 PEG4×10 kDa Conjugate [Conjugate 11i]”, the “MAP during the remaining ten time points versus vehicle” value in series [3] is on record as “no difference in MAP”. In addition, in series [3], the “change in MAP at the 5, 15 and 30 min post dose time points compared to predose” value was “physiological increase in MAP”. Besides, the “MAP (mean ± SD)” value in series [3] (5 min post dose) was 122.8 ± 5.9 mmHg; in series [3] (15 min post dose) it was 121.5 ± 7.5 mmHg; in series [3] (30 min post dose) it was 111.5 ± 13.7 mmHg; in series [3] (predose), 106.4 ± 10.7 mmHg. In series [3] (subcutaneous, dosage equivalent to CNP-38), the “effect on blood pressure (conclusion)” value was “did not decrease blood pressure”.

With “Permanent N-Terminal CNP-38 PEG 5 kDa Conjugate [Conjugate 15e]”, the “EC50 compound/EC50 CNP-38 (residual NPR-B activity)” value on NPR-B is reported as over 5. In the series with recombinant human NEP, the “half life norm. [h]” value is “Almost no proteolysis”. Besides, the “IC50 of PEGylated CNP-38/IC50 CNP-38 (residual NPR-C affinity)” value at NPR-C is 0.53.
